Reference: US11945822B2, “Pyrazolo-triazine and/or pyrazolo-pxrimidine derivatives as selective inhibitor of cyclin dependent kinase” (QURIENT CO., LTD., priority 2018, dated 2024)

biological target: T1, CDK1/Cyclin B (Homo sapiens, UniProt P06493); test: Enzymatic assay for CDK1 (FRET based LANCE Ultra kinase assay); assay type: biochemical; details: read-out: CDK1 enzymatic activity (IC50 range)
T1 construct: purchased Invitrogen PR4768C
Method in brief: (§1)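 Each CDK complex ([…]) phosphorylated 68 nM ULight-MBP peptide with ATP at Km for 60 min at 23° C., against 8 compound doses (4-fold dilutions). EDTA/Eu-anti-phospho-MBP detection, 60 min, then TR-FRET emission at 615 and 665 nm.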

T1 sequence (P06493 whole entry): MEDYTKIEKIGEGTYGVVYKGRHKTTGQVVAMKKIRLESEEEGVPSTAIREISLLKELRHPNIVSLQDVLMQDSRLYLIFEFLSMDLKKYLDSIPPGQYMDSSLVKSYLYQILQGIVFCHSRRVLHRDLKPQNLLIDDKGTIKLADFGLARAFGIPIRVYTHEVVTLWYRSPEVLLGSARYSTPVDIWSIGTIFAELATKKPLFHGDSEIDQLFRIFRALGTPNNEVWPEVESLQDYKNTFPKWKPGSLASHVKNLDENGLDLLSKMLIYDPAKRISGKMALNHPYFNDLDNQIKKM
T1 sequence (P14635 whole entry partner): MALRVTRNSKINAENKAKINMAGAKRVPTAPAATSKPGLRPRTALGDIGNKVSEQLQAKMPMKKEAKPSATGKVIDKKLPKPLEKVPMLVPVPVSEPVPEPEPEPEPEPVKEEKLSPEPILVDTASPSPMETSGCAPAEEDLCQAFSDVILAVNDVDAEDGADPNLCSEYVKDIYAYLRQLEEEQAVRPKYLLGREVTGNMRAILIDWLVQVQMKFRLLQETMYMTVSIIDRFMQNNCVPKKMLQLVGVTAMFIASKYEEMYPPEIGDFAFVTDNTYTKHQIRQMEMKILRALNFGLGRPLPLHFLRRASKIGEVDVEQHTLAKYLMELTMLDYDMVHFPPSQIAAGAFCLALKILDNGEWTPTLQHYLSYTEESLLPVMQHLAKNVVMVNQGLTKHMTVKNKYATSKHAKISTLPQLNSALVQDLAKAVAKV

IC50 | SMILES
100 to 1000 nM | CC(C)c1cnn2c(NCc3ccccc3-c3cc4cccc(NC(=O)C5CC5)c4[nH]3)nc(N3CCC(N)CC3)nc12 [Compound 144]
> 1000 nM | CC(C)c1cnn2c(NCc3c(Cl)cccc3-c3cc4ccccc4[nH]3)nc(N3CCC(N)CC3)nc12 [Compound 182]

tested on: MV4-11; test: Cellular MV4-11 viability assay (CellTiter-Glo, 72 hours); assay type: cell-based; details: Homo sapiens
Method in brief: (§2)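 CellTiter-Glo luminescence read in duplicate after 72 h compound exposure (37 °C, 5% CO2); DMSO-only control, final DMSO under 0.1%.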

IC50 | SMILES
< 1000 nM | CC(C)c1cnn2c(NCc3ccccc3-c3cc4cccc(NC(=O)C5CC5)c4[nH]3)nc(N3CCC(N)CC3)nc12 [Compound 144]
< 1000 nM | CC(C)c1cnn2c(NCc3c(Cl)cccc3-c3cc4ccccc4[nH]3)nc(N3CCC(N)CC3)nc12 [Compound 182]

tested on: HCT116; test: Cellular HCT116 viability assay (CellTiter-Glo, 72 hours); assay type: cell-based; details: Homo sapiens, HCT-116
Method in brief: as §2

IC50 | SMILES
< 1000 nM | CC(C)c1cnn2c(NCc3ccccc3-c3cc4cccc(NC(=O)C5CC5)c4[nH]3)nc(N3CCC(N)CC3)nc12 [Compound 144]
< 1000 nM | CC(C)c1cnn2c(NCc3c(Cl)cccc3-c3cc4ccccc4[nH]3)nc(N3CCC(N)CC3)nc12 [Compound 182]

tested on: RPMI-8226; test: Cellular RPMI-8226 viability assay (CellTiter-Glo, 72 hours); assay type: cell-based; details: Homo sapiens
Method in brief: as §2

IC50 | SMILES
< 1000 nM | CC(C)c1cnn2c(NCc3ccccc3-c3cc4cccc(NC(=O)C5CC5)c4[nH]3)nc(N3CCC(N)CC3)nc12 [Compound 144]
< 1000 nM | CC(C)c1cnn2c(NCc3c(Cl)cccc3-c3cc4ccccc4[nH]3)nc(N3CCC(N)CC3)nc12 [Compound 182]

biological target: T2, CDK5/p25 (Homo sapiens, UniProt Q00535); test: Enzymatic assay for CDK5 (FRET based LANCE Ultra kinase assay); assay type: biochemical; details: read-out: CDK5 enzymatic activity (IC50 range)
T2 construct: purchased Invitrogen PR8543B
T2 sequence (Q00535 whole entry): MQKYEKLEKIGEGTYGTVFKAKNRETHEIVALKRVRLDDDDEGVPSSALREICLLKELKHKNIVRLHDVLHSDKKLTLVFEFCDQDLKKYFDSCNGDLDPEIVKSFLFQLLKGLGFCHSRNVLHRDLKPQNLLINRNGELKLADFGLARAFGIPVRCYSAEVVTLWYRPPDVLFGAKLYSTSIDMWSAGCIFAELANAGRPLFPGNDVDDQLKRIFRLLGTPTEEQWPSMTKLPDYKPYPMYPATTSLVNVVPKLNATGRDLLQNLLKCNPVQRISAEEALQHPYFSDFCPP
T2 sequence (Q15078 99-307 partner limits assumed): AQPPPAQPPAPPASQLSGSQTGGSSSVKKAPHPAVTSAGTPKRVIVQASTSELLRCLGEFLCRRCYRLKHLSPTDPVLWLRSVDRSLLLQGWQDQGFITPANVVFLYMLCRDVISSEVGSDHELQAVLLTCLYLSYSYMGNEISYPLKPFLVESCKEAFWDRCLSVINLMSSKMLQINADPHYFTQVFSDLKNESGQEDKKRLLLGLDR
Method in brief: as §1

IC50 | SMILES
< 100 nM | CC(C)c1cnn2c(NCc3ccccc3-c3cc4cccc(NC(=O)C5CC5)c4[nH]3)nc(N3CCC(N)CC3)nc12 [Compound 144]
> 1000 nM | CC(C)c1cnn2c(NCc3c(Cl)cccc3-c3cc4ccccc4[nH]3)nc(N3CCC(N)CC3)nc12 [Compound 182]

biological target: T3, CDK2/Cyclin A (Homo sapiens, UniProt P24941); test: Enzymatic assay for CDK2 (FRET based LANCE Ultra kinase assay); assay type: biochemical; details: read-out: CDK2 enzymatic activity (IC50 range)
T3 construct: purchased Invitrogen PV6290
Method in brief: as §1

IC50 | SMILES
100 to 1000 nM | CC(C)c1cnn2c(NCc3ccccc3-c3cc4cccc(NC(=O)C5CC5)c4[nH]3)nc(N3CCC(N)CC3)nc12 [Compound 144]
> 1000 nM | CC(C)c1cnn2c(NCc3c(Cl)cccc3-c3cc4ccccc4[nH]3)nc(N3CCC(N)CC3)nc12 [Compound 182]

tested on: OVCAR-3; test: Cellular OVCAR-3 viability assay (CellTiter-Glo, 72 hours); assay type: cell-based; details: Homo sapiens
Description: Human T-cell acute lymphoblastic leukemia cell line, MOLT-4 (ATCC, Cat #CRL-1582), Human multiple myeloma cell line, RPMI-8226 (Invitrogen, Cat #22400-089) and MM.1S (ATCC, Cat #CRL-2974), NSCLC (Non-small cell lung cancer) cell line H460 (ATCC, Cat #HTB-177), Human colon colorectal carcinoma cell line HCT116 (ATCC, Cat #CCL-247), Human acute monocytic leukemia cell line MV4-11 (ATCC, Cat #CRL-9591), OVCAR-3 (ATCC, Cat #HTB-161) and A2780 (ECACC, Cat #93112519) were obtained from ATCC. Cells were grown in RPMI-1640 media (Invitrogen, Cat #22400-089) supplemented with 10% FBS (Invitrogen, Cat #10099141) and 1% penicillin/streptomycin (Invitrogen, Cat #15070063) and cultured at 37° C., 5% CO2 in a humidified chamber. All cell lines were routinely tested for mycoplasma.
The effect of the CDK7 inhibitor to inhibit the growth of target cancer cells was evaluated through the 72 hours time period of viability assay. Briefly, the candidate cell line ware plated in 96 well plate at the following density of cells respectively. 1×10^4 cells/well for MOLT-4, RPMI-8226, MV4-11 and MM.1S, 5×10^3 for H460, HCT116 and OVCAR-3 and IX 10^3 for A2780. After 24 hours, the cells were treated with various concentrations of the compound (ranging from 0.0015 uM to 10 uM). DMSO solvent without compound served as a control and final DMSO concentration less than 0.1%. After 72 hours of incubation at 37° C., 5% CO2 incubator, cells were analyzed for the viability using the CellTiter-Glo Luminescent Cell Viability Assay (Promega, Cat #G7570). All viability assays were performed in duplicate and Luminescence was read using an Envision (Perkin Elmer, USA). Data was analyzed using XLfit software.

IC50 | SMILES
1000 to 10000 nM | CC(C)c1cnn2c(NCc3ccccc3-c3cc4cccc(NC(=O)C5CC5)c4[nH]3)nc(N3CCC(N)CC3)nc12 [Compound 144]
1000 to 10000 nM | CC(C)c1cnn2c(NCc3c(Cl)cccc3-c3cc4ccccc4[nH]3)nc(N3CCC(N)CC3)nc12 [Compound 182]

tested on: MM.1S; test: Cellular MM.1S viability assay (CellTiter-Glo, 72 hours); assay type: cell-based; details: Homo sapiens, MM1.S
Method in brief: (§3)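 Compound exposure lasted 72 h at 37° C, 5% CO2, over 0.0015–10 uM, DMSO kept under 0.1%, with dosing 24 h after seeding. Seeding: A2780 1×10^3, OVCAR-3 5×10^3, MM.1S 1×10^4 cells/well in 10% FBS RPMI-1640. Duplicate CellTiter-Glo luminescence readout.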

IC50 | SMILES
≤ 1000 nM | CC(C)c1cnn2c(NCc3c(Cl)cccc3-c3cc4ccccc4[nH]3)nc(N3CCC(N)CC3)nc12 [Compound 182]

tested on: H460; test: Cellular H460 viability assay (CellTiter-Glo, 72 hours); assay type: cell-based; details: Homo sapiens, NCI-H460
Method in brief: as §2

IC50 | SMILES
< 1000 nM | CC(C)c1cnn2c(NCc3ccccc3-c3cc4cccc(NC(=O)C5CC5)c4[nH]3)nc(N3CCC(N)CC3)nc12 [Compound 144]
< 1000 nM | CC(C)c1cnn2c(NCc3c(Cl)cccc3-c3cc4ccccc4[nH]3)nc(N3CCC(N)CC3)nc12 [Compound 182]

biological target: T4, CDK7/Cyclin H/MNAT1 (Homo sapiens, UniProt P50613); test: Enzymatic assay for CDK7 (FRET based LANCE Ultra kinase assay); assay type: biochemical; details: CDK7 over CDK1
T4 construct: purchased Invitrogen PR6749B
T4 sequence (P50613 whole entry): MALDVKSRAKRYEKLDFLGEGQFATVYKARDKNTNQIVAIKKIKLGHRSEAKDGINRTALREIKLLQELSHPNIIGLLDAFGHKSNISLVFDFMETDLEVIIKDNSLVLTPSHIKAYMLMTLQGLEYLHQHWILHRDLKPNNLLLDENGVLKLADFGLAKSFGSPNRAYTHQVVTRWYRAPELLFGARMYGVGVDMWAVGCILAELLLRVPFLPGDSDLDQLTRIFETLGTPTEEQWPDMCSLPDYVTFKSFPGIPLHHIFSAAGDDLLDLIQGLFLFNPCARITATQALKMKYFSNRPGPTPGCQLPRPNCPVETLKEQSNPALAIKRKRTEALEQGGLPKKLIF
T4 sequence (P51946 whole entry partner): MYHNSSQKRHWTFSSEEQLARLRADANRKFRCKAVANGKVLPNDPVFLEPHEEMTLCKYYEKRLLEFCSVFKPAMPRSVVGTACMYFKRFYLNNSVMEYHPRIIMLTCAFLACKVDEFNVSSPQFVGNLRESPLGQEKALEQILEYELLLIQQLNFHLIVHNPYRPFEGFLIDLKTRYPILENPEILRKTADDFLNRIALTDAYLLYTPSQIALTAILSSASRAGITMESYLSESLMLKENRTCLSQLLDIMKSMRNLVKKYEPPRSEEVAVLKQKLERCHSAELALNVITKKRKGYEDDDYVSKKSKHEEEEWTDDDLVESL
T4 sequence (P51948 whole entry partner): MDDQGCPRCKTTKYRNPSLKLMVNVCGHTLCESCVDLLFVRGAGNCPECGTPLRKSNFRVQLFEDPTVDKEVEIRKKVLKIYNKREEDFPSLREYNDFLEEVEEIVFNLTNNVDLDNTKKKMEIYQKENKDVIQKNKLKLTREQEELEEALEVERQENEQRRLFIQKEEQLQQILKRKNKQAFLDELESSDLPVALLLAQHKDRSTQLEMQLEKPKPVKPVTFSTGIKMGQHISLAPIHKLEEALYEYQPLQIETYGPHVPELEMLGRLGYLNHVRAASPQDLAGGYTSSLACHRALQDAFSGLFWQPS
Method in brief: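 Inhibition was measured at Km ATP by time-resolved FRET between a Eu anti-phospho antibody and a phosphorylated ULight peptide. The enzyme was the purified CDK7/cyclin complex, and data were curve-fitted.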

SMILES | CDK1/CDK7: Selectivity of CDK7 inhibition over CDK1 inhibition
CC(C)c1cnn2c(NCc3ccccc3-c3cc4cccc(NC(=O)C5CC5)c4[nH]3)nc(N3CCC(N)CC3)nc12 [Compound 144] | B (B=less than 200 fold, but greater than 20 fold)
CC(C)c1cnn2c(NCc3c(Cl)cccc3-c3cc4ccccc4[nH]3)nc(N3CCC(N)CC3)nc12 [Compound 182] | A (A=greater than 200 fold)

same assay, conditions: CDK7 over CDK2

SMILES | CDK2/CDK7: Selectivity of CDK7 inhibition over CDK2 inhibition
CC(C)c1cnn2c(NCc3ccccc3-c3cc4cccc(NC(=O)C5CC5)c4[nH]3)nc(N3CCC(N)CC3)nc12 [Compound 144] | B (B=less than 200 fold, but greater than 20 fold)
CC(C)c1cnn2c(NCc3c(Cl)cccc3-c3cc4ccccc4[nH]3)nc(N3CCC(N)CC3)nc12 [Compound 182] | A (A=greater than 200 fold)

same assay, conditions: CDK7 over CDK5

CDK5/CDK7: Selectivity of CDK7 inhibition over CDK5 inhibition | SMILES
C (C=less than 20 fold) | CC(C)c1cnn2c(NCc3ccccc3-c3cc4cccc(NC(=O)C5CC5)c4[nH]3)nc(N3CCC(N)CC3)nc12 [Compound 144]
A (A=greater than 200 fold) | CC(C)c1cnn2c(NCc3c(Cl)cccc3-c3cc4ccccc4[nH]3)nc(N3CCC(N)CC3)nc12 [Compound 182]

same assay, conditions: read-out: CDK7 enzymatic activity (IC50 range)

IC50 | SMILES
< 100 nM | CC(C)c1cnn2c(NCc3ccccc3-c3cc4cccc(NC(=O)C5CC5)c4[nH]3)nc(N3CCC(N)CC3)nc12 [Compound 144]
< 100 nM | CC(C)c1cnn2c(NCc3c(Cl)cccc3-c3cc4ccccc4[nH]3)nc(N3CCC(N)CC3)nc12 [Compound 182]

tested on: A2780; test: Cellular A2780 viability assay (CellTiter-Glo, 72 hours); assay type: cell-based; details: Homo sapiens
Method in brief: as §3

IC50 | SMILES
≤ 1000 nM | CC(C)c1cnn2c(NCc3ccccc3-c3cc4cccc(NC(=O)C5CC5)c4[nH]3)nc(N3CCC(N)CC3)nc12 [Compound 144]
≤ 1000 nM | CC(C)c1cnn2c(NCc3c(Cl)cccc3-c3cc4ccccc4[nH]3)nc(N3CCC(N)CC3)nc12 [Compound 182]
